# US20080166805A1, “Culturing human cells and tissues in an N-glycolylneuraminic acid-free environment” (The Regents of the University of California, priority 2005, published 2008)
# Assays:
# [1] = system: Caco-2 cells; assay: Competition of free Neu5Ac with free Neu5Gc for incorporation into Caco-2 cells; type: cell-based, human
# Description: Neu5Gc and ManNGc Feeding Experiment—Neu5Ac, Neu5Gc or ManNGc were dried, dissolved in the appropriate media supplemented with heat-inactivated human serum, sterilized using a Spin-X® (Corning Inc., Corning, N.Y.) and then added to the cells. The pH of the media containing Sia was adjusted to neutrality using sterilized 1M NaOH before starting the feeding experiment. Cells were cultured in the presence of up to 3 mM free Sia or ManNGc for 1 or 3 days at 37° C. At the end of the feeding, cells were washed with cold PBS, harvested either by scraping or with 2 mM EDTA for fibroblasts, and washed again with cold PBS prior to fractionation.
# Fractionation of the Labeled Cells—Washed cell pellets were sonicated into 500 μL of 20 mM sodium phosphate buffer or 20 mM Tris-HCl, pH 7.5, using 4×15 second pulses of a sonicator cell disrupter, model Some Dismembrator (Fisher Scientific, Hampton, N.J.) at a probe setting of 3. The sonicate was centrifuged at 75×g for 15 min., and the pellet obtained consisted primarily of nuclei and unbroken cells. The pellet contained <5% of the incorporated sialic acid as determined using a radioactive tracer (data not shown.) The supernatant was therefore considered as the “total homogenate” fraction. A portion (20%) of the “total homogenate” fraction was taken for protein quantification and Sia analysis by DMB derivatization and HPLC analysis (as discussed below.) The remainder was centrifuged at 100,000×g for 1 h. The resulting pellet, called the “membrane” fraction, was then resuspended by sonication (15 sec.) in 200 μl of sodium acetate buffer, pH 5.5. The 100,000×g supernatant, called the “soluble” fraction was adjusted to 90% ethanol using absolute ice-cold ethanol, and placed overnight at −20° C. The flocculant precipitate, which represents the “soluble protein” fraction, was washed 3 times with 90% ice-cold ethanol and then resuspended in 200 μl of water. The supernatant fluid representing the cytosolic low molecular weight (LMW) fraction was dried and brought up in 100 μL with water prior to Sia analysis. All the Sias in these fractions were released with mild acid hydrolysis if necessary and then analyzed by HPLC after DMB derivatization. Protein quantification was performed on the total homogenate, membrane and soluble protein fractions by using the BCA protein assay kit from Pierce (Rockford, Ill.) In some experiments, the resulting data obtained for the Sia bound to the membrane fraction and to the soluble proteins were pooled and presented here as a High Molecular Weight (HMW) fraction.
# Sialic Acid Release, DMB Derivatization and HPLC Analysis—The bound Sias from the total homogenate, membrane and soluble protein fractions were released using 2M acetic acid hydrolysis, 3 h. at 80° C. The released Sias, or free Sias, contained in the soluble LMW fraction were passed through a Microcon® YM-10 filter (Millipore, Bedford, Mass.) prior to DMB derivatization, which was done according to Hara et al., 1989. DMB-Sia derivatives from the different fractions were then analyzed by HPLC using a C18 column (Microsorb Mv-TM 100 A, Varian, Palo Alto, Calif.) Isocratic elution was achieved using 7% methanol, 8% acetonitrile in water during 50 min. at 0.9 ml/min flow. The eluant was monitored by fluorescence.
# Quantification of Sias—For all HPLC chromatograms, the quantification of Sias was done by comparison with known quantities of DMB derivatized Neu5Gc and Neu5Ac used as standards and then reported in terms of pmoles of Sia. For total homogenate, membrane and cytosolic protein fractions, this number was expressed per mg of protein. Due to minor sample-to-sample variations in amounts and recoveries, the data in the Figures is presented as percent of Neu5Gc over total Sias, rather than as absolute amounts.
# [2] = system: human LB EBV-transformed lymphoblasts; assay: Neu5Gc/Neu5Ac feeding experiment, human EBV-transformed lymphoblasts; type: cell-based; details: human lymphoblasts fed 3 mM Neu5Ac for 3 days
# Description: (§1) Cell Culture—Caco-2 cells were propagated in alpha-MEM containing GLUTAMAX™ (Invitrogen, San Diego, Calif.) and a mixture of ribonucleosides and deoxyribonucleosides (Gibco/Invitrogen, San Diego, Calif.) supplemented with 20% FCS. All the fibroblast cell lines and CHO-K1 cells were cultured in the same media supplemented respectively with 15% non-heat inactivated FCS or 10% heat inactivated FCS. Chimpanzee Fred and human […] EBV-transformed lymphoblasts were cultured in RPMI-1640 (Gibco/Invitrogen, San Diego, Calif.) supplemented with 10% heat inactivated FCS or 15% human serum. All of the cultures were maintained at 37° C., 5% CO2 atmosphere. In order to deplete any remaining Neu5Gc from FCS, the cells were split and cultured prior to Neu5Gc feeding experiments for at least 4 days in alpha-MEM supplemented with an adequate percentage of heat-inactivated premium human serum instead of FCS. The cells were then maintained under the same conditions during the whole feeding experiment. The human serum was heat inactivated at 56° C. for 30 min. before use.
# (§2) Neu5Gc and ManNGc Feeding Experiment—Neu5Ac, Neu5Gc or ManNGc were dried, dissolved in the appropriate media supplemented with heat-inactivated human serum, sterilized using a Spin-X® (Corning Inc., Corning, N.Y.) and then added to the cells. The pH of the media containing Sia was adjusted to neutrality using sterilized 1M NaOH before starting the feeding experiment. Cells were cultured in the presence of up to 3 mM free Sia or ManNGc for 1 or 3 days at 37° C. […]
# (§3) Fractionation of the Labeled Cells—Washed cell pellets were sonicated into 500 μL of 20 mM sodium phosphate buffer or 20 mM Tris-HCl, pH 7.5, using 4×15 second pulses of a sonicator cell disrupter, model Some Dismembrator (Fisher Scientific, Hampton, N.J.) at a probe setting of 3. […] The pellet contained <5% of the incorporated sialic acid as determined using a radioactive tracer (data not shown.) The supernatant was therefore considered as the “total homogenate” fraction. A portion (20%) of the “total homogenate” fraction was taken for protein quantification and Sia analysis by DMB derivatization and HPLC analysis (as discussed below.) The remainder was centrifuged at 100,000×g for 1 h. […] All the Sias in these fractions were released with mild acid hydrolysis if necessary and then analyzed by HPLC after DMB derivatization. Protein quantification was performed on the total homogenate, membrane and soluble protein fractions by using the BCA protein assay kit from Pierce (Rockford, Ill.) In some experiments, the resulting data obtained for the Sia bound to the membrane fraction and to the soluble proteins were pooled and presented here as a High Molecular Weight (HMW) fraction. […]
# [3] = system: chimpanzee lymphoblasts; assay: Neu5Gc/Neu5Ac feeding experiment, chimpanzee EBV-transformed lymphoblasts; type: cell-based; details: chimpanzee lymphoblasts fed 3 mM Neu5Ac for 3 days
# Description: as §1, §2, §3
# [4] = 3 mM Neu5Gc for 3 days in the presence of 15 mM Neu5Ac
smiles,measurement,setting,value
"CC(=O)N[C@H]1[C@H]([C@H](O)[C@H](O)CO)OC(O)(C(=O)O)C[C@@H]1O (stereo partly drawn) [Neu5Ac, N-acetylneuraminic acid]","Neu5Gc as percent of total Sia, TH",[1]; 3 mM Neu5Gc for 3 days in the presence of 3 mM Neu5Ac,48%
same,"Neu5Gc as percent of total Sia, TH",[1]; [4],35%
same,"Neu5Gc as percent of total Sia, membrane-bound fraction",[1]; [4],almost to zero
same,"Neu5Gc as percent of total Sia, membrane-bound fraction",[1]; 3 mM Neu5Gc for 3 days with 3 mM Neu5Ac,29.9%
same,Neu5Gc content of the fractions,[2],almost no detectable Neu5Gc
same,change of percentages of Neu5Gc in the different fractions,[3],changed only minimally
